Source: patent EP4674418A1, “SOLUTION, FREEZE-DRIED FORMULATION, FREEZE-DRIED F[…] PACKAGE, INJECTION, AND INJECTION PREPARATION METHOD” (Ascentawits Pharmaceuticals, Ltd., priority 2023, dated 2024)
Values after ≈ are worked out from the molar mass of the structure shown. Where two headings read alike, the source gives them in different places.

Key:
[1] = Freeze-thaw cycle stability of freeze-dried formulations; assay type: physicochemical; settings: TH-302 active pharmaceutical ingredient used for the two batches
Description: The freeze-thaw test was to place the sample in the dark at (-20°C±5°C) for 2 days, and at (25°C±5°C) for another 2 days, as a cycle. The HPLC purity of TH-302 in the freeze-dried samples was determined. Table 32: HPLC purity test data of TH-302 active pharmaceutical ingredient, two batches of prepared freeze-dried formulations, and the freeze-dried formulations after three freeze-thaw cycles (%)

[2] = Saturated solubility of the drug in D5W solution under strong shaking; assay type: physicochemical; settings: 5% glucose solution (D5W), saline or isotonic, thermodynamic from solid, shaken 2 minutes, filtered, room temperature 24 hours
Description: The TH-302 sample was weighed accurately in an amount of about 60 mg, placed in a transparent vial, and added with 6 mL of 5% glucose solution (D5W). The resulting solution was shaken vigorously for 2 minutes to obtain a solubility- stock solution. It was observed that the solubility-stock solution contained insoluble substances. Thus, the solubility- stock solution was filtered and then became clear. […] This value was exactly the saturated solubility of the drug in D5W solution.

[3] = Solubility experiment of TH-302 (saturated solution method, HPLC); assay type: physicochemical; settings: thermodynamic from solid
Description: The solubility is measured in an experiment by the saturated solution method; that is, the solid TH-302 was directly charged into the solvent until insoluble matter or turbidity appears. After clarification for a period of time, the solution was directly filtered. The clarified filtrate was taken directly for determination of the concentration of TH-302. The resulting concentration is exactly the solubility of TH-302 in this solvent system. Please refer to Tables 1, 2, and 3 for specific solubility data.
For the method for measuring the concentration of TH-302 (mg/ml), please refer to the HPLC method described in the patent WO2008083101A1 owned by Threshold Pharmaceuticals Inc. (see Example 2. An Ethanol Formulation of TH302, for details); and the external standard method was used for quantification.

[4] = concentrated injection with ethanol, dimethlyacetamide, polysorbate 80; mainly induced by dimethlyacetamide; WO2015013448A1; cited from earlier work

Cn1c(COP(=O)(NCCBr)NCCBr)cnc1[N+](=O)[O-] [TH-302]
HPLC purity [1]: 95.87% | solubility at 2 min [2]: 7250 µg/mL (≈ 16.1 mM) | solubility ([3]; 1% N,N-dimethylacetamide aqueous solution (volume), water, 1%N,N-dimethlyacetamide aqueous solution (volume), read-out: Solubility): 8050 µg/mL (≈ 17.9 mM) | solubility ([3]; 1% ethanol aqueous solution (volume), water, read-out: Solubility): 6580 µg/mL (≈ 14.7 mM) | solubility ([3]; 1% polyethylene glycol aqueous solution (volume), water, read-out: Solubility): 6810 µg/mL (≈ 15.2 mM) | solubility ([3]; 20% ethanol aqueous solution (volume), aqueous with cosolvent or surfactant or cyclodextrin, read-out: Solubility): 8400 µg/mL (≈ 18.7 mM) | solubility ([3]; aqueous with cosolvent or surfactant or cyclodextrin, 1%Tween 80 aqueous solution (volume), read-out: Solubility): 7210 µg/mL (≈ 16.1 mM) | solubility ([3]; aqueous with cosolvent or surfactant or cyclodextrin, 20% tert-butanol aqueous solution, volume ratio, commercial TH-302, read-out: Solubility): 10000 µg/mL | solubility ([3]; aqueous with cosolvent or surfactant or cyclodextrin, 30% tert-butanol in water, mass ratio, TH-302 synthesized by the applicants, read-out: Solubility): 42000 µg/mL | solubility ([3]; aqueous with cosolvent or surfactant or cyclodextrin, 40% tert-butanol aqueous solution, volume ratio, commercial TH-302, read-out: Solubility): > 40000 µg/mL | solubility ([3]; organic solvent or mixture, 60% tert-butanol in water, mass ratio, TH-302 synthesized by the applicants, read-out: Solubility): 146000 µg/mL | solubility ([3]; organic solvent or mixture, 70% tert-butanol in water, mass ratio, TH-302 synthesized by the applicants, read-out: Solubility): 165000 µg/mL | solubility ([3]; organic solvent or mixture, 75% tert-butanol in water, mass ratio, TH-302 synthesized by the applicants, read-out: Solubility): 151000 µg/mL | solubility ([3]; organic solvent or mixture, 80% tert-butanol aqueous solution, volume ratio, commercial TH-302, read-out: Solubility): 88500 µg/mL | solubility ([3]; organic solvent or mixture, 80% tert-butanol in water, mass ratio, TH-302 synthesized by the applicants, read-out: Solubility): 143000 µg/mL | solubility ([3]; organic solvent or mixture, 90% tert-butanol aqueous solution, volume ratio, commercial TH-302, read-out: Solubility): 76400 µg/mL | solubility ([3]; organic solvent or mixture, 90% tert-butanol in water, mass ratio, TH-302 synthesized by the applicants, read-out: Solubility): 66600 µg/mL | solubility ([3]; organic solvent or mixture, 90% tert-butanol/10% ethanol, volume ratio, commercial TH-302, read-out: Solubility): 10700 µg/mL | solubility ([3]; organic solvent or mixture, 95% tert-butanol aqueous solution, volume ratio, commercial TH-302, read-out: Solubility): 32300 µg/mL | solubility ([3]; organic solvent or mixture, 95% tert-butanol in water, mass ratio, TH-302 synthesized by the applicants, read-out: Solubility): 36800 µg/mL | solubility ([3]; organic solvent or mixture, 95% tert-butanol/5% ethanol, volume ratio, commercial TH-302, read-out: Solubility): 9980 µg/mL | solubility ([3]; organic solvent or mixture, 100% tert-butanol, TH-302 synthesized by the applicants, read-out: Solubility): 11800 µg/mL (≈ 26.2 mM) | solubility ([3]; organic solvent or mixture, tert-butanol, commercial TH-302, read-out: Solubility): 8980 µg/mL (≈ 20 mM) | solubility ([3]; pH 2, simulated gastric fluid, pH2, HCl solution, read-out: Solubility): 6940 µg/mL (≈ 15.5 mM) | solubility ([3]; pH 4, aqueous buffer, pH4, phthalate buffer solution, read-out: Solubility): 7220 µg/mL (≈ 16.1 mM) | solubility ([3]; pH 6, aqueous buffer, pH6, phosphate buffer solution, read-out: Solubility): 5810 µg/mL (≈ 12.9 mM) | solubility ([3]; pH 7, aqueous buffer, pH7, phosphate buffer solution, read-out: Solubility): 5870 µg/mL (≈ 13.1 mM) | solubility ([3]; pH 8, aqueous buffer, pH8, phosphate buffer solution, read-out: Solubility): 5940 µg/mL (≈ 13.2 mM) | solubility ([3]; pH 10, aqueous buffer, pH10, borate buffer solution, read-out: Solubility): 6070 µg/mL (≈ 13.5 mM) | solubility ([3]; tert-butanol-water mixed solvent, aqueous with cosolvent or surfactant or cyclodextrin, summary statement, maximum reached, read-out: solubility in the tert-butanol-water mixed solvent system): ≥ 160000 µg/mL | TH-302 administration reactions [4]: lip swelling and urticaria
